Test results: patent US20260374766A1, “METHODS FOR TREATING CANCER” (Antares Therapeutics, Inc., priority 2022, published 2026)
Read-outs that look alike come from different tables or passages of the source.

Legend:
p53 Y220C = p53 Y220C (Homo sapiens, UniProt P04637, Y220C); experiment: Luciferase Reporter Assay (Luc), p53 response element, NClH1299 cells with inducible p53 Y220C; format: cell-based; conditions: 6 hour; for AC50: read-out: Luc P53 Y220C AC50
Method: Luciferase Reporter Assay Protocol
The cells were then used for p53 reporter assay. 5,000 cells were seeded in each well of 384 plate and cultured in 0.5 ug/mL doxycycline (D3072; Sigma) containing medium for 24 hours before compound treatment. After 6 hour of compound treatment, equal volume of One-Glo reagent (E6110; Promega) was added to each well and the plate was incubated for 5 minutes with shaking at room temperature. The luciferase activity was immediately measured with PheraStar microplate reader.

H1299 p53 Y220C = experiment: Cell Proliferation Assay (CellTiter-Glo, CTG), H1299 p53 Y220C (NClH1299-inducible p53 Y220C); format: cell-based; conditions: Homo sapiens, NCI-H1299, 120 h, NClH1299-inducible p53 Y220C cells, 5 days
Method: (§1) Inducible p53 Y220C and R273H constructs (Tet-One inducible expression system; Takara) were stably expressed in NClH1299 cells by lentiviral transduction. NUGC3, A549, BxPC3, T3M4, HuH7, HCC2935, MFE296, NClH1299, NClH1299-inducible p53 Y220C, and NClH1299-inducible p53 R273H cell lines were used for cell proliferation assay. 250-500 cells were seeded in each well of 384 plate and then compounds were dispensed into each well using Echo or Tecan. After 5 days of incubation, equal volume of CellTiter-Glo reagent (G7570; Promega) was added into each well and the plate was incubated at room temperature for 10 minutes with shaking. The luminescent signal was measured by PheraStar microplate reader and IC50 was calculated.

[1] = biological target: T1, p53 Y220C mutant protein (amino acid residues 94-293) (Homo sapiens, UniProt P04637, Y220C); experiment: Surface Plasmon Resonance (SPR) assay, Kd_kinetic; format: binding; conditions: SPR, p53 Y220C, read-out: SPR P53 Y220C KD kinetic
T1 construct: p53 Y220C mutant protein (amino acid residues 94-293)
T1 sequence (P04637 94-293, stated change not applied): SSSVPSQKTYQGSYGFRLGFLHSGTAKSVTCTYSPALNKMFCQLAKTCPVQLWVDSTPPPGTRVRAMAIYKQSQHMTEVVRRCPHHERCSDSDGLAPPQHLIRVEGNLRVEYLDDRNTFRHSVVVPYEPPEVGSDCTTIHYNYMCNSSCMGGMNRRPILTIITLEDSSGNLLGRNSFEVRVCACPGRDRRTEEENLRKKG
Method: Surface Plasmon Resonance (SPR) Assay Protocol
SPR experiments were performed on a Biacore 8K instrument. […] The running buffer contained 50 mM Tris, pH 7.5, 100 mM NaCl, 1 mM DTT, 0.01% Brij35, 0.05% Tween-20 and 1% DMSO. The assay temperature was maintained at 16 or 20 °C and data were fit into the 1:1 binding model using the Biacore Insight Evaluation software.

H1299 p53 R273H = experiment: Cell Proliferation Assay (CellTiter-Glo, CTG), H1299 p53 R273H (NClH1299-inducible p53 R273H); format: cell-based; conditions: Homo sapiens, NCI-H1299, 120 h, CellTiter-Glo, H1299 p53 R273H, 5 days
Method: as §1

[2] = Emax, luciferase reporter, NClH1299 inducible p53 Y220C
[3] = AC50, NClH1299 cells with inducible p53 Y220C
[4] = Emax, NClH1299 cells with inducible p53 Y220C, 10 uM tool compound as positive control
[5] = luciferase reporter, NClH1299 inducible p53 Y220C, 10 uM tool compound as positive control
[6] = luciferase reporter, NClH1299 inducible p53 Y220C
[7] = AC50, luciferase reporter, NClH1299 inducible p53 Y220C

Row | SMILES | Emax (p53 Y220C; [2]) [%] | IC50 (H1299 p53 Y220C; CellTiter-Glo) [nM] | Kd [1] [nM] | AC50 (p53 Y220C; [3]) [nM] | Emax (p53 Y220C; [4]) [%] | AC50 (p53 Y220C; [7]) [nM] | further results
1 | CNC(=O)c1ccc(NCC#Cc2nc3c(N[C@@H]4C[C@@H]5COC[C@@H](N5)[C@@H]4F)cccn3c2SC(F)(F)F)c(OC)c1 (relative stereo) [Example 329] | 80 to 90 | < 750 | – | – | – | – | –
2 | CNC(=O)c1ccc(NCC#Cc2nc3c(N[C@@H]4CCN(C)C[C@@H]4F)cccn3c2C(F)(F)C(F)(F)F)c(OC)c1 [Example 30, 4-{[3-(8-{[(3S,4R)-3-fluoro-1-methylpiperidin-4-yl]amino}-3-(1,1,2,2,2-pentafluoroethyl)imidazo[1,2-a]pyridin-2-yl)prop-2-yn-1-yl]amino}-3-methoxy-N-methylbenzamide] | – | – | – | – | – | – | Kd ([1]; kinetic KD): 10 to 100 nM; Emax (p53 Y220C; [5]): > 90%; AC50 (p53 Y220C; [6]): > 3000 nM
3 | COc1cc2c(cc1NCC#Cc1nc3c(N[C@@H]4CCN(C)C[C@@H]4F)cccn3c1CC(F)(F)F)CNC2=O [Example 95, 5-{[3-(8-{[(3S,4R)-3-fluoro-1-methylpiperidin-4-yl]amino}-3-(2,2,2-trifluoroethyl)imidazo[1,2-a]pyridin-2-yl)prop-2-yn-1-yl]amino}-6-methoxy-2,3-dihydroisoindol-1-one] | – | – | – | – | – | – | Kd ([1]; kinetic KD): < 10 nM
4 | COc1ccc(C(=O)N(C)C)cc1NCC#Cc1nc2c(N[C@@H]3CCN(C)C[C@@H]3F)cccn2c1SC(F)(F)F [Example 143] | – | – | – | – | – | – | Kd ([1]; kinetic KD): < 10 nM; Emax (p53 Y220C; [5]): > 90%; AC50 (p53 Y220C; [6]): < 750 nM; IC50 (H1299 p53 R273H): 5000 to 8000 nM
5 | COc1cc(C(=O)NCC2CN(C)C2)ccc1NCC#Cc1nc2c(N[C@@H]3CCOC[C@@H]3F)cccn2c1SC(F)(F)F [Example 227] | 70 to 80 | > 3000 | < 10 | – | – | > 3000 | –
6 | CNC(=O)c1ccc(OCCN(C)C)c(NCC#Cc2nc3c(N[C@@H]4CCOC[C@@H]4F)cccn3c2SC(F)(F)F)c1 [Example 229] | 70 to 80 | 750 to 1500 | < 10 | – | – | 750 to 1500 | –
7 | CNC(=O)c1cc(NCC#Cc2nn3c(N[C@@H]4CCN(C)C[C@@H]4F)cccc3c2SC(F)(F)F)c(OC)cn1 [Example 271] | 80 to 90 | < 750 | < 10 | – | – | < 750 | –
8 | CNC(=O)c1ccc(NCC#Cc2nc3c(N[C@H]4C[C@H]5COC[C@H](N5)[C@H]4F)cccn3c2SC(F)(F)F)c(OC)c1 [Example 281] | 80 to 90 | 1500 to 3000 | – | – | – | – | –
9 | CNC(=O)c1cc(NCC#Cc2cc3c(N[C@@H]4CCN(C)C[C@@H]4F)cccn3c2SC(F)(F)F)n2ncnc2c1 [Example 361] | < 70 | > 3000 | – | – | – | > 3000 | –
10 | COc1cc(S(C)(=N)=O)ccc1NCC#Cc1cc2c(N[C@@H]3CCN(C)C[C@@H]3F)cccn2c1SC(F)(F)F (stereo partly drawn) [Example 374] | 80 to 90 | < 750 | < 10 | – | – | < 750 | –
11 | CNC(=O)c1ccc(NCC#Cc2cc3c(N[C@@H]4CCN(C)C[C@@H]4F)cccn3c2SC(F)(F)F)c(O[C@H]2C[C@H](O)C2)c1 [Example 398] | 80 to 90 | – | < 10 | – | – | < 750 | –
12 | C[C@H](O)CNC(=O)c1ccc(OC2COC2)c(NCC#Cc2cc3c(N[C@@H]4CCN(C)C[C@@H]4F)cccn3c2SC(F)(F)F)c1 [Example 400] | 80 to 90 | < 750 | < 10 | – | – | < 750 | –
13 | [2H]C([2H])([2H])Oc1cc(S(C)(=O)=O)ccc1NCC#Cc1cc2c(N[C@@H]3CCN(C(F)(F)F)C[C@@H]3F)cccn2c1SC(F)(F)F [Example 412] | > 90 | – | < 10 | – | – | < 750 | –
14 | CNC(=O)c1ccc(O[C@H]2C[C@@H](O)C2)c(NCC#Cc2cc3c(N[C@@H]4CCN(C)C[C@@H]4F)cccn3c2SC(F)(F)F)c1 [Example 413, 3-{[3-(8-{[(3S,4R)-3-fluoro-1-methylpiperidin-4-yl]amino}-3-[(trifluoromethyl)sulfanyl]indolizin-2-yl)prop-2-yn-1-yl]amino}-N-methyl-4-[(1s,3s)-3-hydroxycyclobutoxy]benzamide] | > 90 | < 750 | < 10 | – | – | < 750 | –
15 | [2H]C([2H])([2H])Oc1cc(S(C)(=O)=O)ccc1NCC#Cc1nc2c(N[C@@H]3CCN(C)C[C@@H]3C)cccn2c1SC(F)(F)F [Example 454] | – | – | < 10 | < 750 | > 90 | – | –
16 | [2H]C([2H])([2H])Oc1cc(S(C)(=O)=O)ccc1NCC#Cc1nn2c(N[C@@H]3CCN(C)C[C@@H]3F)cccc2c1SC(F)(F)F [Example 461] | – | – | < 10 | < 750 | > 90 | – | –

The next lines start with results.

Row | Emax (p53 Y220C; [2]) [%] | IC50 (H1299 p53 Y220C; CellTiter-Glo) [nM] | Kd [1] [nM] | AC50 (p53 Y220C; [3]) [nM] | Emax (p53 Y220C; [4]) [%] | AC50 (p53 Y220C; [7]) [nM] | SMILES | further results
17 | – | – | < 10 | < 750 | > 90 | – | [2H]C(C)(O)CNC(=O)c1ccc(NCC#Cc2cc3c(N[C@@H]4CCN(C)C[C@@H]4F)cccn3c2SC(F)(F)F)c(OC)c1 (single isomer, unassigned) [Example 487, 4-{[3-(8-{[(3S,4R)-3-fluoro-1-methylpiperidin-4-yl]amino}-3-[(trifluoromethyl)sulfanyl]indolizin-2-yl)prop-2-yn-1-yl]amino}-N-[(2R*)-2-hydroxy(2-^2H)propyl]-3-methoxybenzamide] | IC50 (H1299 p53 Y220C): < 750 nM
18 | – | – | < 10 | < 750 | > 90 | – | CNC(=O)c1ccc(OCC2(O)CC2)c(NCC#Cc2cc3c(N[C@@H]4CCN(C)C[C@@H]4F)cccn3c2SC(F)(F)F)c1 [Example 467] | IC50 (H1299 p53 Y220C): < 750 nM
19 | – | – | < 10 | < 750 | > 90 | – | CNC(=O)c1ccc(NCC#Cc2cc3c(N[C@@H]4CCN(C)C[C@@H]4F)cccn3c2SC(F)(F)F)c(O[C@H]2C[C@@H](O)C2)c1 [Example 474] | –
20 | – | – | < 10 | < 750 | > 90 | – | [2H]C([2H])([2H])Oc1cc(S(C)(=O)=O)ccc1NCC#Cc1cc2c(N[C@@H]3CCN(C)C[C@@H]3F)cccn2c1SC(F)(F)F [Example 485] | –
21 | – | – | < 10 | < 750 | > 90 | – | [2H]C([2H])([2H])Oc1cc(S(C)(=O)=O)ccc1NCC#Cc1nc2c(N[C@@H]3CCN(C)C[C@@H]3F)nccn2c1SC(F)(F)F [Example 490] | –
22 | – | – | < 10 | < 750 | > 90 | – | CNC(=O)c1cc(NCC#Cc2cc3c(N[C@@H]4CCN(C)C[C@@H]4F)cccn3c2SC(F)(F)F)c2ncnn2c1 [Example 494] | IC50 (H1299 p53 Y220C): < 750 nM
23 | – | – | < 10 | < 750 | > 90 | – | [2H]C([2H])([2H])Oc1cc(C(=O)NC)ccc1NCC#Cc1nn2c(N[C@@H]3CCN(C)C[C@@H]3F)cccc2c1SC(F)(F)F [Example 500] | IC50 (H1299 p53 Y220C): < 750 nM
24 | – | – | – | – | > 90 | – | [2H]C([2H])([2H])N1CC[C@@H](Nc2cccn3c(SC(F)(F)F)c(C#CCNc4ccc(S(C)(=O)=O)cc4OC)cc23)[C@@H](F)C1 [Example 501] | IC50 (H1299 p53 Y220C): < 750 nM
25 | – | – | – | – | > 90 | – | [2H]C([2H])([2H])Oc1cc(C(=O)NC)ccc1NCC#Cc1nc2c(N[C@@H]3CCN(C)C[C@@H]3F)cccn2c1SC(F)(F)F [Example 505, 4-{[3-(8-{[(3S,4R)-3-fluoro-1-methylpiperidin-4-yl]amino}-3-[(trifluoromethyl)sulfanyl]imidazo[1,2-a]pyridin-2-yl)prop-2-yn-1-yl]amino}-3-(2H3)methoxy-N-methylbenzamide] | IC50 (H1299 p53 Y220C): < 750 nM
26 | – | – | < 10 | < 750 | > 90 | – | [2H]C([2H])([2H])Oc1ccc(C(=O)NC)cc1NCC#Cc1nc2c(N[C@@H]3CCN(C)C[C@@H]3F)cccn2c1SC(F)(F)F [Example 507] | IC50 (H1299 p53 Y220C): < 750 nM
